Laboratory results as given in patent publication US7230018B2, “Substituted propane-1,3-diamine derivatives and the pharmaceutical use thereof” (Gruenenthal GmbH, priority 2001, dated 2007).

Test system: phenylquinone-induced writhing in the mouse
Assay: phenylquinone-induced writhing test in the mouse
Type: in vivo
Details: male NMRI mice, 10 mg/kg intravenously, phenylquinone intraperitoneally 10 minutes after test substance, writhing counted 5 to 20 minutes after phenylquinone, hydrochloride
Protocol: Testing of Analgesia in the Writhing Test in the Mouse
The investigation for analgesic activity was carried out in the phenylquinone-induced writhing in the mouse (modified by I. C. Hendershot and J. Forsaith (1959) J. Pharmacol. Exp. Ther. 125, 237-240). Male NMRI mice weighing 25 to 30 g were employed for this. Groups of 10 animals per substance dose received 0.3 ml/mouse of a 0.02% aqueous solution of phenylquinone (phenylbenzoquinone, Sigma, Deisenhofen; preparation of the solution with the addition of 5% ethanol and storage in a water bath at 45° C.) administered intraperitoneally 10 minutes after intravenous administration of the test substances. The animals were placed individually in observation cages. The number of pain-induced stretching movements (so-called writhing reactions=straightening of the body with stretching of the hind extremities) was counted by means of a push-button counter 5 to 20 minutes after the administration of phenylquinone. Animals which received only physiological saline solution were also run as a control. All the substances were tested in the standard dosage of 10 mg/kg. The percentage inhibition (% inhibition) of the writhing reaction by a substance was calculated according to the following formula: […]

SMILES	% Inhibition of the writhing reaction (dosage in mg/kg intravenously)
CN(C)C(c1cccnc1)C1CCCCC1NC(=O)c1ccccc1.Cl (stereo not drawn) [Example 1, (syn,syn)-N-[2-(dimethylaminopyridin-3-ylmethyl)cyclohexyl]benzamide hydrochloride]	54 (10) %
CN(C)C(c1cccnc1)C1CCCCC1NC(=O)c1ccccc1F.Cl (stereo not drawn) [Example 2, (syn,syn)-N-[2-(dimethylaminopyridin-3-ylmethyl)cyclohexyl]-2-fluorobenzamide hydrochloride]	67 (10) %
CN(C)C(c1cccnc1)C1CCCCC1NC(=O)c1ccccc1Cl.Cl (stereo not drawn) [Example 3, (syn,syn)-2-chloro-N-[2-(dimethylaminopyridin-3-ylmethyl)cyclohexyl]-benzamide hydrochloride]	85 (10) %
Cc1ccccc1C(=O)NC1CCCCC1C(c1cccnc1)N(C)C.Cl (stereo not drawn) [Example 4, (syn,syn)-N-[2-(dimethylaminopyridin-3-ylmethyl)cyclohexyl]-2-methylbenzamide hydrochloride]	34 (10) %
CN(C)C(c1cccnc1)C1CCCCC1NC(=O)c1ccccc1.Cl (stereo not drawn) [Example 5, (anti,anti)-N-[2-(dimethylaminopyridin-3-ylmethyl)cyclohexyl]-benzamide hydrochloride]	49 (10) %
CN(C)C(c1cccnc1)C1CCCCC1NC(=O)c1ccccc1F.Cl (stereo not drawn) [Example 6, (anti,anti)-N-[2-(dimethylaminopyridin-3-ylmethyl)cyclohexyl]-2-fluorobenzamide hydrochloride]	62 (10) %
CN(C)C(c1cccnc1)C1CCCCC1NC(=O)c1ccccc1Cl.Cl (stereo not drawn) [Example 7, (anti,anti)-2-chloro-N-[2-(dimethylaminopyridin-3-ylmethyl)cyclohexyl]benzamide hydrochloride]	56 (10) %
Cc1ccccc1C(=O)NC1CCCCC1C(c1cccnc1)N(C)C.Cl (stereo not drawn) [Example 8, (anti,anti)-N-[2-(dimethylaminopyridin-3-ylmethyl)cyclohexyl]-2-methylbenzamide hydrochloride]	40 (10) %
CC(=O)NC1CCCCC1C(c1cccnc1)N(C)C.Cl (stereo not drawn) [Example 9, (syn,syn)-N-[2-(dimethylaminopyridin-3-ylmethyl)cyclohexyl]acetamide hydrochloride]	75 (10) %
CC(=O)NC1CCCCC1C(c1cccnc1)N(C)C.Cl (stereo not drawn) [Example 10, (anti,anti)-N-[2-(dimethylaminopyridin-3-ylmethyl)cyclohexyl]acetamide hydrochloride]	59 (10) %
